Reference: US7053050B2, “Preventives/remedies for proliferative organ diseases chronic arthritic diseases, hypertrophic scar or keloid” (Yoshiko Yasuda, priority 2001, dated 2006)

System: malignant melanoma cell strains (P39) tumor
Experiment: Heterotransplantation of malignant melanoma cells in nude mice; PCNA and CD31 staining of the excised tumor
Type: in vivo, nude mice (Balb/c Jcl-nu)
Experimental: EMP9 was synthesized by a known method and dissolved in saline. The solution was colored with addition of Evans blue at the final concentration of 0.25%.
Five-week old nude mice (Balb/c Jcl-nu, Japan Clea Inc.) were purchased, maintained in a germfree chamber for a week for acclimatization and then used. 5×10^6 cells of malignant melanoma cell strains (P39, Utsumi and Elkind, 1993) were suspended in a culture solution (0.1 ml) and the suspension was injected subcutaneously interscapularly into the mice. After a few weeks, formation of tumor was observed on the outer skin surface. The major axis×minor axis×height of the tumor was measured twice a week. The tumor was observed until its size became 6×7×7 mm, thereafter administration was started. After the administration, the size of the tumor was measured in a similar manner.
Four doses of 0.1 ml of a 0.5 mg/ml EMP9 solution were administered intraperitoneally at intervals of 1 hr. After 24 hr and 48 hr, 0.1 ml of the solution was administered similarly 4 times, respectively. On the 7th day from the first administration, the tumor was excised.
The excised tumor was fixed in Zamboni fixing liquid or frozen in liquid nitrogen. The tumor fixed in Zamboni fixing liquid was divided into several tissue masses. The plural samples collected from the respective masses were embedded to prepare tissue sections thereof. The proliferating cells were stained using PCNA antibody and the vascular endothelial cells were stained using CD31 antibody, respectively. Hematoxylin was used for nuclear staining. Each of the section specimens was observed under a microscope at 200-fold magnification. The cell number in 20 compartments wherein one compartment has an area of 17.6×10^−3 mm^2 was counted (the cell number was not less than 4,500). The cell proliferation ratio was calculated from the following equation and represented in [Table 1]. Furthermore, the number of blood vessel in 100 compartments was counted, and the average number per a compartment (13.1×10^−2 mm^2) was calculated and represented in [Table 1]. […]

erythropoietin mimetic peptide 9 (GGTYSCHFAPLTWVCKPQGG) [EMP9, erythropoietin receptor antagonist]
Proliferation ratio (%) (P39 melanoma tumor in nude mice, 0.1 ml of 0.5 mg/ml EMP9 intraperitoneally 4 times at 1 hr intervals, repeated after 24 hr and 48 hr, tumor excised on 7th day, PCNA staining, proliferating cells/living cells x100): 3.03%
Inhibitory effects on tumor proliferation and neovascular proliferation (conclusion in words) (conclusion from Table 1, significant difference versus saline group (p<0.05)): superior inhibitory effects on both tumor proliferation and neovascular proliferation
Number of blood vessel (average ± standard error) (same regimen, CD31 staining, average number per compartment (13.1×10^−2 mm^2), 100 compartments counted): 0.64 ± 0.10
